# Reference: patent US9307767B2, “Herbicidally and insecticidally active thiazolopyridinones” (BAYER INTELLECTUAL PROPERTY GMBH, priority 2012, dated 2016)
# Values joined by “and” are separate entries in the source; they are usually repeats but may differ in a detail not shown here. Equal values may be shown once.
# Experiments:
# Type in all cases: in vivo
# oilseed rape [1] = test: Post-emergence test, damage to crop plants; details: application rate 320 g/ha, after about 3 weeks
# Procedure: (§1) Seeds of monocotyledonous and dicotyledonous weed and crop plants are placed in sandy loam in wood-fiber pots, covered with soil and cultivated in a greenhouse under good growth conditions. 2 to 3 weeks after sowing, the test plants are treated at the one-leaf stage. The compounds according to the invention, formulated in the form of wettable powders (WP) or as emulsion concentrates (EC), are then sprayed as aqueous suspension or emulsion at a water application rate of 600 to 800 l/ha (converted) with the addition of 0.2% of wetting agent onto the green parts of the plants. After the test plants have been left to stand in the greenhouse under optimal growth conditions for about 3 weeks, the action of the formulations is assessed visually in comparison to untreated controls (herbicidal action in percent (%): 100% activity=the plants have died, 0% activity=like control plants). Here, the compounds Nos. I-a-39 and I-a-42, for example, show, at an application rate of 320 g/ha, an activity of at least 80% against Setaria viridis and at the same time no damage in corn and oilseed rape.
# wheat [2] = test: Post-emergence test, damage to crop plants; details: application rate 80 g/ha, after about 3 weeks
# Procedure: as §1
# corn [3] = test: Post-emergence test, damage to crop plants; details: after about 3 weeks
# Procedure: as §1
# rice [4] = test: Post-emergence test, damage to crop plants; details: after about 3 weeks
# Procedure: as §1
# wheat [5] = test: Pre-emergence test, damage to crop plants; details: application rate 1280 g/ha, after 3 weeks
# From the text: (§2) Seeds of monocotyledonous and dicotyledonous weed plants and crop plants are placed in wood-fiber pots in sandy loam and covered with soil. The compounds according to the invention, formulated in the form of wettable powders (WP) or as emulsion concentrates (EC), are then applied as aqueous suspension or emulsion at a water application rate of 600 to 800 l/ha (converted) with the addition of 0.2% of wetting agent to the surface of the covering soil. After the treatment, the pots are placed in a greenhouse and kept under good growth conditions for the test plants. The damage to the test plants is assessed visually after a test period of 3 weeks by comparison with untreated controls (herbicidal activity in percent (%): 100% action=the plants have died, 0% action=like control plants). […] The compounds Nos. I-a-38 and I-a-39 each show, at an application rate of 1280 g/ha, an of at least 80% against Echinochloa crus galli and Veronica persica and at the same time no damage in corn and oilseed rape.
# Setaria viridis = test: Pre-emergence herbicidal action against weed plants; details: application rate 1280 g/ha, visual assessment after 3 weeks
# From the text: as §2
# Lolium multiflorum [6] = test: as above; details: application rate 1280 g/ha, visual assessment after 3 weeks
# From the text: as §2
# rice [7] = test: Pre-emergence test, damage to crop plants; details: application rate 1280 g/ha, after 3 weeks
# From the text: as §2
# Cyperus serotinus = test: Pre-emergence herbicidal action against weed plants; details: application rate 1280 g/ha, visual assessment after 3 weeks
# From the text: as §2
# Alopecurus myosuroides = test: as above; details: application rate 1280 g/ha, visual assessment after 3 weeks
# From the text: as §2
# [8] = tested on: larvae of the mustard beetle (Phaedon cochleariae); test: Phaedon test (PHAECO spray treatment); details: application rate 500 g/ha, Chinese cabbage leaf discs sprayed, after 7 days
# Procedure: • Solvent: 78.0 parts by weight of acetone • 1.5 parts by weight of dimethylformamide • Emulsifier: 0.5 part by weight of alkylaryl polyglycol ether
# To produce a suitable preparation of active compound, 1 part by weight of active compound is mixed with the stated amounts of solvent and emulsifier, and the concentrate is diluted with emulsifier-containing water to the desired concentration. Discs of Chinese cabbage leaves (Brassica pekinensis) are sprayed with an active compound formulation of the desired concentration and, after drying, populated with larvae of the mustard beetle (Phaedon cochleariae). After 7 days, the activity in % is determined. 100% means that all of the beetle larvae have been killed; 0% means that none of the beetle larvae have been killed. In this test, for example, the following compounds of the Preparation Examples show, at an application rate of 500 g/ha, an activity of 100%: I-a-29, I-a-40.
# oilseed rape [9] = test: Pre-emergence test, damage to crop plants; details: application rate 1280 g/ha, after 3 weeks
# From the text: as §2
# corn [10] = test: Pre-emergence test, damage to crop plants; details: application rate 1280 g/ha, after 3 weeks
# From the text: as §2
# Polygonum convolvulus = test: Pre-emergence herbicidal action against weed plants; details: application rate 1280 g/ha, visual assessment after 3 weeks
# From the text: as §2
# [11] = tested on: greenhouse red spider mite (Tetranychus urticae); test: Tetranychus test, OP-resistant (TETRUR spray treatment); details: application rate 500 g/ha, bean leaf discs sprayed, after 6 days
# Procedure: (§3) • Solvent: 78.0 parts by weight of acetone • 1.5 parts by weight of dimethylformamide • Emulsifier: 0.5 parts by weight of alkylaryl polyglycol ether
# To produce a suitable preparation of active compound, 1 part by weight of active compound is mixed with the stated amounts of solvent and emulsifier, and the concentrate is diluted with emulsifier-containing water to the desired concentration. Discs of bean leaves (Phaseolus vulgaris) infested by all stages of the greenhouse red spider mite (Tetranychus urticae) are sprayed with an active compound formulation of the desired concentration. After 6 days, the activity in % is determined. 100% means that all of the spider mites have been killed; 0% means that none of the spider mites have been killed.
# Lolium multiflorum [12] = test: Post-emergence herbicidal action against weed plants; details: application rate 320 g/ha, visual assessment after about 3 weeks
# Procedure: as §1
# [13] = tested on: caterpillars of the armyworm (Spodoptera frugiperda); test: Spodoptera frugiperda test (SPODFR spray treatment); details: application rate 500 g/ha, corn leaf disks sprayed, after 7 days
# Procedure: as §3
# To produce a suitable preparation of active compound, 1 part by weight of active compound is mixed with the stated amounts of solvent and emulsifier, and the concentrate is diluted with emulsifier-containing water to the desired concentration. Disks of corn leaves (Zea mays) are sprayed with an active compound preparation of the desired concentration and, after drying, populated with caterpillars of the armyworm (Spodoptera frugiperda). After 7 days, the activity in % is determined. 100% means that all of the caterpillars have been killed; 0% means that none of the caterpillars have been killed. In this test, for example, the following compounds of the Preparation Examples show, at an application rate of 500 g/ha, an activity of 85%: […], I-a-40. In this test, for example, the following compounds of the Preparation Examples show, at an application rate of 500 g/ha, an activity of 100%: I-a-38, I-a-39.
compound,measurement,setting,value
"6-(4′-chloro-4-methylbiphenyl-3-yl)-5-oxo-4-(prop-2-yn-1-yl)-4,5-dihydro[1,3]thiazolo[4,5]pyridin-7-yl 2-methylpropanoate [I-a-42]",damage in oilseed rape,oilseed rape [1],no damage
same,damage in wheat,wheat [2],no damage
same,damage in corn,corn [3]; application rate 80 g/ha,no damage
same,damage in corn,corn [3]; application rate 320 g/ha,no damage
same,damage in rice,rice [4]; application rate 80 g/ha,no damage
same,damage in wheat,wheat [5],no damage
same,herbicidal activity against Setaria viridis,Setaria viridis,at least 80%
same,herbicidal activity against Lolium multiflorum,Lolium multiflorum [6],at least 80%
Cn1c(=O)c(-c2c(F)ccc(-c3ccc(Cl)cc3Cl)c2Cl)c(O)c2scnc21 [I-a-19],damage in wheat,wheat [5],no damage
same,damage in rice,rice [7],no damage
same,herbicidal activity against Cyperus serotinus,Cyperus serotinus,at least 80%
same,herbicidal activity against Alopecurus myosuroides,Alopecurus myosuroides,at least 80%
C#CCn1c(=O)c(-c2c(Cl)cc(-c3ccc(Cl)cc3)cc2CC)c(O)c2scnc21 [I-a-29],activity in % (beetle larvae killed),[8],100%
O=c1c(-c2ccc(-c3ccc(Cl)cc3)cc2Cl)c(OCC(F)F)c2scnc2n1CC(F)F [I-a-32],damage in oilseed rape,oilseed rape [9],no damage
same,damage in corn,corn [10],no damage
same,herbicidal activity against Polygonum convolvulus,Polygonum convolvulus,at least 80%
C#CCn1c(=O)c(-c2cc(-c3ccc(Cl)cc3)ccc2Cl)c(O)c2scnc21 [I-a-37],activity in % (spider mites killed),[11],85% and 90%
Cc1ccc(-c2ccc(Cl)cc2)cc1-c1c(O)c2scnc2n(C)c1=O [I-a-38],damage in corn,corn [3]; application rate 320 g/ha,no damage
same,damage in rice,rice [4]; application rate 320 g/ha,no damage
same,activity in % (spider mites killed),[11],85%
same,damage in oilseed rape,oilseed rape [9],no damage
same,damage in corn,corn [10],no damage
same,herbicidal activity against Lolium multiflorum,Lolium multiflorum [12],at least 80%
same,activity in % (caterpillars killed),[13],85% and 100%
Cc1ccc(-c2ccc(Cl)cc2)cc1-c1c(O)c2scnc2n(CC(F)F)c1=O [I-a-39],damage in oilseed rape,oilseed rape [1],no damage
same,damage in corn,corn [3]; application rate 320 g/ha,no damage
same,activity in % (spider mites killed),[11],85% and 90%
same,damage in oilseed rape,oilseed rape [9],no damage
same,damage in corn,corn [10],no damage
same,activity in % (caterpillars killed),[13],85% and 100%
"C#CCn1c(=O)c(-c2cc(-c3ccc(Cl)cc3)ccc2C)c(O)c2scnc21 [I-a-40, 6-(4′-chloro-4-methylbiphenyl-3-yl)-7-hydroxy-4-(prop-2-yn-1-yl)[1,3]thiazolo[4,5-b]pyridin-5(4H)-one]",activity in % (beetle larvae killed),[8],100%
same,activity in % (caterpillars killed),[13],85%
